Source: ChEMBL document CHEMBL1201862, “PubChem BioAssay data set” (2004)
Each block holds one molecule with its values, some of them ahead of it. Activity calls are given as the source filed them.

Columns and labels:
Cytochrome P450 2D6 = Cytochrome P450 2D6 (Homo sapiens, UniProt P10635);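 further: CYP2D6 member of a cytochrome P450 panel assay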
Cytochrome P450 2C9 = Cytochrome P450 2C9 (Homo sapiens, UniProt P11712)
[1] = molecular target: T1, Rac GTPase-activating protein 1 (Homo sapiens, UniProt Q9H0H5); assay: blockers of MgcRacGAP-driven Rac1 GTP hydrolysis – biochemical, ADP Hunter fluorescence, primary and confirmatory, confirmation (AID 624330); assay type: functional
T1 sequence (Q9H0H5 whole entry): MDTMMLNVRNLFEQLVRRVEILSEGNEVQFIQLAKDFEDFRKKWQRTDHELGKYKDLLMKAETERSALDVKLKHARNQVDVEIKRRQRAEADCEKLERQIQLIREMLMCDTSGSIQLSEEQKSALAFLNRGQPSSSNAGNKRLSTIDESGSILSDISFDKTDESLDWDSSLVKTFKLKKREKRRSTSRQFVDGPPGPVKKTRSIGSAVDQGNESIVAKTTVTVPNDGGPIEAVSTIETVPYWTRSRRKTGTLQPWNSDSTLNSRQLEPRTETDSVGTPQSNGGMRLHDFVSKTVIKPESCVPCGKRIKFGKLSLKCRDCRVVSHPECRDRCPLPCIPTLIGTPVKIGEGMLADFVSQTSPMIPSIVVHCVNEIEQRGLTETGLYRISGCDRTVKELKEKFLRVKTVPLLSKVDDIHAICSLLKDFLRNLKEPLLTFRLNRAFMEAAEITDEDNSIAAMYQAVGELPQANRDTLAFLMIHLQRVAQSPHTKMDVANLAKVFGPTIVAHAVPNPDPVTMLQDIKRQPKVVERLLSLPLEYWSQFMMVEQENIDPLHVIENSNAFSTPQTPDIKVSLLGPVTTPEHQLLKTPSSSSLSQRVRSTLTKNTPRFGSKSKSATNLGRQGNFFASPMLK

[2] = viability of uninfected HEp-2 cells – cell-based, HTS, cytotoxicity control for RSV inhibitor project, dose response (AID 2410); assay type: functional; conditions: human respiratory syncytial virus
[3] = molecular target: T2, Heat shock factor protein 1 (Mus musculus, UniProt P38532); assay: decrease of HSF1-responsive luciferase luminescence – cell-based, NIH3T3, dose retest, confirmation (AID 2382); assay type: functional;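 further: NIH3T3 fibroblasts with HSF1-driven luciferase reporter stressed by proteasome inhibitor MG132; luminescence from HSF1-driven luciferase expression after 8 hours of MG132 stress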
T2 sequence (P38532 whole entry): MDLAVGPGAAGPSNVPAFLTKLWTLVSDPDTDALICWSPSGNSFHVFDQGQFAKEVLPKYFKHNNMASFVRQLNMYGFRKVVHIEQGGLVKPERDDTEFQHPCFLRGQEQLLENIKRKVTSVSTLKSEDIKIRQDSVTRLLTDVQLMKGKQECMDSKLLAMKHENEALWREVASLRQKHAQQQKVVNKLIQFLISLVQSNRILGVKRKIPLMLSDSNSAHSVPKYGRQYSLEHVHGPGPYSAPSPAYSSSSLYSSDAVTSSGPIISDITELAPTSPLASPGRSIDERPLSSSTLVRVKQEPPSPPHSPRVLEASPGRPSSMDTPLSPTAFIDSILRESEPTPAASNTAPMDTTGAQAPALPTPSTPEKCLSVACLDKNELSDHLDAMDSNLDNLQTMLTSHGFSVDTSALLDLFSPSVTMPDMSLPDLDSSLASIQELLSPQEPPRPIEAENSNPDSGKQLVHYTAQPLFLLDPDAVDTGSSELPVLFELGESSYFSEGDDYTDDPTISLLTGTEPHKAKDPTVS

Cytochrome P450 2C19 = Cytochrome P450 2C19 (Homo sapiens, UniProt P33261); assay: Cytochrome panel assay with activity outcomes. Panel member name: p450-cyp2c19 Compounds with AC50 equal or less than 10 uM are considered active; assay type: functional; conditions: read-out: AC50
Cytochrome P450 2C19, sequence (P33261 whole entry): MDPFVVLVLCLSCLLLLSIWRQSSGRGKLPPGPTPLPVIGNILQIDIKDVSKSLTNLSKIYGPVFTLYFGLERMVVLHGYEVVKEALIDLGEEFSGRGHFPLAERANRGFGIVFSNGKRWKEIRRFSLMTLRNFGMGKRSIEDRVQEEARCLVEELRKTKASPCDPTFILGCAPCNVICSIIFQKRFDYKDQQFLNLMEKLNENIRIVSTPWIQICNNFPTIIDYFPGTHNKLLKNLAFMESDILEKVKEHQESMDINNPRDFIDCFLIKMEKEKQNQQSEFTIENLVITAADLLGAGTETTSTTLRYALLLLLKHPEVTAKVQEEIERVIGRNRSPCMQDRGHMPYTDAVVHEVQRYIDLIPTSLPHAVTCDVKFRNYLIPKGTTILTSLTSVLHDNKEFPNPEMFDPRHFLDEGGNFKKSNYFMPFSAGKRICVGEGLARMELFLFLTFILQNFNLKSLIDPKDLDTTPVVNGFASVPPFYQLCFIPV

Cytochrome P450 2D6, sequence (P10635 whole entry): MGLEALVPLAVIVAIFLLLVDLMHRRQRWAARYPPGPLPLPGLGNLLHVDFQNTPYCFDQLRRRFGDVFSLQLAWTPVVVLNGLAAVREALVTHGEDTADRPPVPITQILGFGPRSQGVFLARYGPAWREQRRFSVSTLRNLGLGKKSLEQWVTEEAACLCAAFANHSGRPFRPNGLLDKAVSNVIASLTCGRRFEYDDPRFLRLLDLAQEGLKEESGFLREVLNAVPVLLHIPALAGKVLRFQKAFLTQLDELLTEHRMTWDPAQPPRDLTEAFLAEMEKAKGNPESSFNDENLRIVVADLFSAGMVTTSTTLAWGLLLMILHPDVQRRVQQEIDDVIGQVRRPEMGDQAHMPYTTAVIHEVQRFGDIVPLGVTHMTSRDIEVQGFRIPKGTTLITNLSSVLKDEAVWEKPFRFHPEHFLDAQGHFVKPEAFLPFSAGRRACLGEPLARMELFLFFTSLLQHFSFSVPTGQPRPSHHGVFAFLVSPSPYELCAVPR
Cytochrome P450 2C9, sequence (P11712 whole entry): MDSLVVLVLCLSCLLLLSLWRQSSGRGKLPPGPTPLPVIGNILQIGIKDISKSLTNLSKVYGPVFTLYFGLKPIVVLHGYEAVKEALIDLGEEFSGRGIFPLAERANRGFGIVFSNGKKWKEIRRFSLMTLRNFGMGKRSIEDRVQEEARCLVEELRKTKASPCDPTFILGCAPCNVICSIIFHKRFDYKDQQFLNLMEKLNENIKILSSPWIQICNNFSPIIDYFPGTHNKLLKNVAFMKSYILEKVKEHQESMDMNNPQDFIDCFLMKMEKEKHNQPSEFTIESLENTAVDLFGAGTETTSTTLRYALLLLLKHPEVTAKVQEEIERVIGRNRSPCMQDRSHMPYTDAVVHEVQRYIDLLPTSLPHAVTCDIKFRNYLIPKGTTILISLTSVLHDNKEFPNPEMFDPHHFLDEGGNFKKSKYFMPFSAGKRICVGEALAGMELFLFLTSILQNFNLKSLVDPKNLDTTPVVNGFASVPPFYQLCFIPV

Structure (SMILES): Cc1ccc(OCC(=O)N2CCN(c3ccc([N+](=O)[O-])c(N4CCOCC4)c3)CC2)cc1
AC50 (Cytochrome P450 2D6): 12.6 µM (inconclusive)

Structure (SMILES): Oc1ccc(N2CCN(C(c3cccs3)c3nnnn3CCc3ccccc3)CC2)cc1 (stereo not drawn)
IC50 [1]: 47.3 µM (active)

Structure (SMILES): Cc1c(C)c2ccc(OS(C)(=O)=O)c(C)c2oc1=O
CC50 [2]: > 50 µM (active)

Structure (SMILES): COc1ccc(N2CCN(c3ncccc3C#N)CC2)cc1
IC50 [1]: 157 µM (active)

Structure (SMILES): CCCCNCCOCCOc1ccccc1-c1ccccc1
EC50 [3]: > 195 µM (not active)

Structure (SMILES): CC(C)[C@H](N)c1nnc(SC/C=C/c2ccccc2)o1
AC50 (Cytochrome P450 2D6): 35.5 µM (inconclusive)
AC50 (Cytochrome P450 2C9): 0.0562 µM (inconclusive)

Structure (SMILES): COc1cccc(Nc2nc(N)nc(C(F)(F)F)n2)c1
CC50 [2]: 20.4 µM (active)

Structure (SMILES): COc1ccc(C(=O)N2CCN(CCCc3ccccc3)CC2)cc1OC
IC50 [1]: 123 µM (active)

Structure (SMILES): Nc1nc(SC/C=C\c2ccccc2)c2nc[nH]c2n1
AC50 (Cytochrome P450 2D6): 3.16 µM (inconclusive)
AC50 (Cytochrome P450 2C9): 3.98 µM (inconclusive)

Structure (SMILES): C=CCn1c(C)nnc1SCC(=O)Nc1nc(C)c(C(=O)N(C)C)s1
EC50 [3]: > 195 µM (not active)

Structure (SMILES): CSc1ccccc1C(=O)N1CCN(c2ncccn2)CC1
EC50 [3]: > 195 µM (not active)

Structure (SMILES): O=C(O)CCC1(C(=O)O)OCCc2ccccc21 (stereo not drawn)
EC50 [3]: > 195 µM (not active)

Structure (SMILES): Cc1nccn1Cc1cccc2ccccc12
EC50 [3]: > 195 µM (not active)

Structure (SMILES): COc1ccc(CNC(=O)COc2cc3c(c4oc(=O)cc(C)c24)CCC(C)(C)O3)cc1OC
CC50 [2]: > 50 µM (active)

Structure (SMILES): COC(=O)C(c1ccccc1)C1(O)CC(C)N(C)CC1C (stereo not drawn)
EC50 [3]: > 195 µM (not active)

Structure (SMILES): CC[C@@H](C)[C@H](NC(=O)Cc1c(C)c2cc3c(C)c(C)oc3c(C)c2oc1=O)C(=O)O
EC50 [3]: > 195 µM (not active)

Structure (SMILES): COc1cccc(CN2CCN(C(=O)c3ccco3)CC2)c1OC
IC50 [1]: 163 µM (active)

Structure (SMILES): CCOc1cc(/C=N/NC(=O)c2cc(-c3ccccc3)nc3ccccc23)ccc1O
CC50 [2]: 31.8 µM (active)

Structure (SMILES): Oc1ccc(/C=N/NC(=S)N2CCOCC2)cc1
IC50 [1]: 63.7 µM (active)

Structure (SMILES): C/C(=N\NC(=O)c1nnn(-c2nonc2N)c1C(C)C)c1cc(C)sc1C
CC50 [2]: > 50 µM (active)

Structure (SMILES): CSC1=NN(c2ccccc2)CN(c2ccccc2)N1C
IC50 [1]: 75.6 µM (active)

Structure (SMILES): O=c1c(-c2ccccc2Cl)c[nH]n1-c1ccccc1
IC50 [1]: 97.4 µM (active)

Structure (SMILES): CC(/C=N/n1c(S)nnc1-c1ccco1)=C\c1ccccc1
IC50 [1]: 108 µM (active)

Structure (SMILES): c1ccc2oc(C3=NCCN3)cc2c1
AC50 (Cytochrome P450 2D6): 39.8 µM (inconclusive)

Next, values leading:

AC50 (Cytochrome P450 2D6): 7.94 µM (inconclusive)
AC50 (Cytochrome P450 2C9): 1.26 µM (inconclusive)
Structure (SMILES): CCCC[C@@H]1C[C@H]1C(NC(=O)Cc1ccccc1)c1ccc(Cl)cc1 (stereo partly drawn)

EC50 [3]: > 195 µM (not active)
Structure (SMILES): Cc1ccc(C(=O)Nc2ccc3c(c2)C(=O)NC3=O)cc1

EC50 [3]: > 195 µM (not active)
Structure (SMILES): CC(=O)Nc1ccc(-c2nnn(CC(=O)Nc3ccc4c(c3)OCO4)n2)cc1Cl

EC50 [3]: > 195 µM (not active)
Structure (SMILES): O=C1CN(C(=O)COc2c(Cl)cccc2Cl)c2ccccc2N1

EC50 [3]: > 195 µM (not active)
Structure (SMILES): CCOC(=O)c1cnc2ccc(C(=O)OC)cc2c1NCCCN1CCOCC1

EC50 [3]: > 195 µM (not active)
Structure (SMILES): COc1cccc(NC(=O)CCSc2nnc3scc(-c4ccccc4)n23)c1

AC50 (Cytochrome P450 2C9): 10 µM (inconclusive)
AC50 (Cytochrome P450 2C19): 14.1 µM (inconclusive)
Structure (SMILES): CCCn1nc2cc(C(=O)NCc3ccc4c(c3)OCO4)ccc2c1OCC

EC50 [3]: > 195 µM (not active)
Structure (SMILES): CCc1ccc(-c2nc(C[S+]([O-])CC(=O)NCc3cccnc3)c(C)o2)cc1 (stereo not drawn)

IC50 [1]: 22.7 µM (active)
Structure (SMILES): Cc1cc(Oc2ccc(-c3ccccc3)cc2)n2ncnc2n1

AC50 (Cytochrome P450 2C9): 0.891 µM (inconclusive)
AC50 (Cytochrome P450 2C19): 0.316 µM (inconclusive)
Structure (SMILES): CCC(CC)C(=O)Nc1cccc(C(=O)Nc2ccc(OC)cc2[N+](=O)[O-])c1

EC50 [3]: > 195 µM (not active)
Structure (SMILES): O=S(=O)(Nc1cccc(-n2cnnn2)c1)c1cc(Cl)ccc1Cl

EC50 [3]: > 195 µM (not active)
Structure (SMILES): Fc1cc(F)cc(-c2oncc2-c2nnnn2-c2ccccc2)c1

AC50 (Cytochrome P450 2D6): 25.1 µM (inconclusive)
Structure (SMILES): CCCC[C@@H]1C[C@H]1C(NC(=O)c1cccnc1)c1ccc(Cl)cc1 (stereo partly drawn)

AC50 (Cytochrome P450 2D6): 17.8 µM (inconclusive)
Structure (SMILES): CN1CCN(c2ccc([N+](=O)[O-])cc2NC(=O)c2ccccc2Cl)CC1
